Source: patent US20130096054A1, “LATENT HUMAN IMMUNODEFICIENCY VIRUS REACTIVIATION” (priority 2010, published 2013)
Read-outs that look alike come from different tables or passages of the source. Where a SMILES comes first, the peptide text is derived from it. The star is where a group is joined. Cbz = O=C(OCc1ccccc1)*

Assays:
[1] = system: latently HIV-1 infected CA5 T cells; settings: for priming effect on HIV-1 reactivation by sub-optimal dose of HRF: pretreatment with increasing concentrations, then sub-optimal HRF
Protocol: CA5 T cells were pretreated with increasing concentrations of dactinomycin (DM) (FIG. 11A), the DNA intercalator daunorubicin (DR) (FIG. 11B), or the transcription inhibitors DRB (FIG. 11 C) and α-amanitin (FIG. 11D) (concentrations indicated). The cells were then left unstimulated (white circles) or activated with a sub-optimal concentration of HRF (black circles). Reactivation levels were determined as the percentage of GFP-positive cells 24 hours after stimulation. Viability of the cells correlates with the size of the symbol (size range adjusted to 5-95%).
Infection levels in the cell cultures were monitored by flow cytometric analysis of EGFP expression. Flow cytometric analysis was performed on a GUAVA EasyCyte (Millipore; Billerica, Mass.), or a LSRII (Becton & Dickinson; Franklin Lakes, N.J.).
Bacteria from various sources were isolated on TSA II agar plates containing 5% sheep blood. Bacterial isolates were then grown in RPMI 1640 medium supplemented with 10% FBS. After two days of incubation at 37° C. bacteria were pelleted and resuspended in RPMI medium to an optical density (OD600) of 8, aliquoted and frozen at −80° C. Unless otherwise indicated, Massilia timonae was grown in RPMI 1640 medium supplemented with 10% FBS. Typically, medium was inoculated with Massilia timonae from frozen stocks to an OD600 of 0.01. After 48 hours at 37° C., the culture was centrifuged at 3200 g to separate bacteria from the culture medium. Bacteria were resuspended in fresh medium to an OD600 of 8 and frozen to be used as references and stock cultures. The supernatant was then centrifuged at 10,000 g for 20 minutes and sterilized by passage through an 0.2 μm PVDF filter with low protein binding ability. HRF activity was determined by its ability to reactivate latent HIV-1 infection in CA5 cells. Only supernatants of which 6 μl reactivated infection in at least 60% of CA5 cells were used to study HRF properties.
(§1) Infection levels in the cell cultures were monitored by flow cytometric (FCM) analysis of GFP expression. FCM analysis was performed on a GUAVA EasyCyte (GUAVA Technologies, Inc.; Millipore; Billerica, Mass.) and a BD FACSCalibur or a LSR11 (Becton & Dickinson; Franklin Lakes, N.J.). Cell sorting experiments were performed using a FACSAria™ Flow Cytometer (Becton&Dickinson). Data analysis was performed using either CellQuest (Becton&Dickinson) or GUAVA Express (GUAVA Technologies, Inc.).
To identify the optimal concentration of dactinomycin, CA5 T cells were pretreated with increasing concentrations of dactinomycin (0.0001 and 1 μg/ml), and then left untreated or stimulated with a sub-optimal concentration of HRF or TNF-α. […] Twenty four hours after activator addition, levels of HIV-1 reactivation were determined as the percentage of GFP-positive cells using flow cytometric analysis, which allowed for the simultaneous determination of cell viability.

[2] = system: NF-κB dependent promoters in 293T cells; test: NF-κB dependent promoter GFP constructs transfected into 293T cells; assay type: cell-based
Protocol: (§2) FIGS. 6A-6C show HRF triggers suboptimal functional induction of NF-κB dependent gene expression. […] The HIV-1 reactivating kinetics were determined by stimulating CA5 T cells with optimal concentrations of HRF, phorbol 12-myristate 13-acetate (PMA) and tumor necrosis factor-α (TNF-α) and analyzing HIV-1 reactivation as a function of EGFP-expression over a period of 48 hours. Data for all agents are depicted as the percentage of EGFP-positive cells in the total cell population. […] To test the ability of HRF to mediate Tat-independent activation of the HIV-1 LTR, NOMI cells (HIV-1 reporter cell line with an integrated LTR-EGFP construct) were stimulated with increasing concentrations of PMA (0.01-10 ng/ml), TNF-α (0.003-30 μg/ml) and HRF supernatant (0.3-100 μl). The level of LTR-induction was then measured as EGFP-expression detectable after 24 hours as determined by flow cytometric analysis. Arrows indicate the concentrations at which the respective stimulus would have triggered full HIV-1 reactivation in the latently HIV-1 infected CA5 T cell line. […] 293T cells were transfected with several NF-κB dependent promoter constructs and then stimulated with either TNF-α (10 μg/ml) or HRF (25 μl). Promoter induction was measured as total EGFP expression. […]

[3] = system: HIV-1 LTR (integrated LTR-EGFP construct, NOMI cells); test: Tat-independent activation of integrated LTR-GFP construct in NOMI reporter T cells; assay type: cell-based; settings: 24 hours
Protocol: as §2

[4] = system: latently HIV-2 infected J2574 reporter T cells (HIV-2 7312A); test: Reactivation of latent HIV-2 infection in J2574 reporter T cells; assay type: cell-based; settings: GFP-negative sorted population
Protocol: J2574 reporter T cells were infected with HIV-2 7312A and a latently infected cell population was established (>90% latently infected cells). The cell population was then pretreated with varying concentrations of dactinomycin (0-8 ng/ml) for 18 hours and then either left untreated (C) or stimulated with a sub-optimal dose of HRF, which by itself triggered reactivation in 10% of the cells. Reactivation levels were determined 24 hours post HRF activation by quantifying the level of GFP-positive cells using flow cytometric analysis.
J2574 reporter T cells were generated by retrovirally transducing Jurkat T cells with a HIV-1 reporter construct (p2574) in which the HIV-1 LTR controls the expression of GFP. The HIV-1 LTR and the GFP gene are separated by a 2,500 base pair (bp) spacer element. Lentiviral particles were produced by transfecting 293T cells with p2574 and supplying gag-pol-rev-tat in trans. VSV-G was used as viral envelope protein. Following lentiviral transduction of Jurkat cells, all cells that spontaneously expressed GFP were removed by cell sorting. The GFP-negative population was then activated with PMA to identify all cells that would harbor an inducible LTR-GFP-LTR integration event. Cells that turned GFP-positive following stimulation were again selected by cell sorting. GFP expression in this population ceased after a few days leaving a population of GFP-negative reporter cells. The amount of founder cells for this population is calculated to represent >50,000 individual integration events.
To determine the ability of dactinomycin to prime a latent HIV-2 infection, a latently HIV-2 infected population of GFP reporter T cells were tested. Briefly, to create the latent HIV-2 infected population, J2574 reporter cells were infected with HIV-2 7312A and a population of latently HIV-2 infected cells was generated by removing the actively infected, GFP-positive cells using a fluorescence activated cell sorter.

[5] = system: latently HIV-1 infected J89GFP T cells; test: HIV-1 reactivation in latently HIV-1 infected J89GFP T cells (flow cytometry / HTS); assay type: cell-based; settings: 10 ng/ml PMA, three J89GFP populations
Protocol: as §1

[6] = system: chronically actively infected T cell lines JNLG#35 and JNLG#44; test: Active HIV-1 transcription in chronically actively infected GFP-reporter T cells (GFP MCF); assay type: cell-based; settings: 48 hours after addition
Protocol: Changes in HIV-1 transcription levels were determined after 48 hours by measuring GFP mean channel fluorescence intensity (GFP MCF). GFP MCF was plotted over the drug concentration for dactinomycin (FIG. 12A), the DNA intercalators daunorubicin (DM) (FIG. 12B) and rebeccamycin (RM) (FIG. 12C), as well as the transcription inhibitors ICRF-193 (FIG. 12D), DRB (FIG. 12E) and α-amanitin (FIG. 12F). The size of symbols indicates the respective cell viability in the sample (size range adjusted to 5-95%).
For this purpose, each of the compounds was titrated over a relevant range of concentrations on two chronically actively infected T cell lines (JNLG#35 and JNLG#44). These clonal cell lines are infected with a GFP-reporter virus. Forty eight hours after addition of the compounds, the effect of each compound on HIV-1 transcription was determined by flow cytometric analysis quantifying GFP mean channel fluorescence intensity (MCF).

CC[C@@]1(O)C[C@H](O[C@H]2C[C@H](N(C)C)[C@H](O[C@H]3C[C@H](O)[C@H](O[C@H]4CCC(=O)[C@H](C)O4)[C@H](C)O3)[C@H](C)O2)c2c(cc3c(c2O)C(=O)c2c(O)cccc2C3=O)[C@H]1C(=O)OC [aclacinomycin]
priming effect on HIV-1 reactivation by sub-optimal dose of HRF [1]: strong priming effect

OC[C@H]1O[C@@H](n2cnc3cc(Cl)c(Cl)cc32)[C@H](O)[C@@H]1O [DRB, 5,6 dichloro-beta-D-ribofuranosylbenzimidazole]
cytotoxicity at higher concentrations [1]: high levels of cytotoxicity
effect of higher concentrations on HIV-1 reactivation triggered by HRF or TNF-α [1]: inhibit HIV-1 reactivation

CC(C)C[C@@H](C=O)NC(=O)[C@H](CC(C)C)NC(=O)[C@H](CC(C)C)NC(=O)OCc1ccccc1 [MG132] (Cbz-Leu-Leu-Leu-aldehyde)
priming effect on HIV-1 reactivation by sub-optimal dose of HRF [1]: did not exhibit any priming effect

TNF-α
reactivation ([1]; sub-optimal dose of TNF-α alone): 32%
GFP expression driven by NF-κB responsive promoter constructs (IL-8, TNF-α, HIV-1 LTR, three consensus NF-κB sites) ([2]; TNF-α 10 μg/ml or HRF 25 μl): efficiently induced
GFP expression of construct under murine stem cell virus LTR (no NF-κB responsive element) ([2]; control construct): Neither TNF-α nor HRF influenced GFP expression
Tat-independent activation of integrated LTR-GFP construct (GFP expression) [3]: stimulated Tat-independent activation of the integrated LTR-GFP construct

O=C1[O][Pt]2([NH][C@@H]3CCCC[C@H]3[NH]2)[O]C1=O [oxaliplatin]
priming effect on HIV-1 reactivation by sub-optimal dose of HRF [1]: not reproduced

CCCCCCCCCCCCCC(=O)O[C@@H]1[C@@H](C)[C@@]2(O)[C@@H](C=C(CO)C[C@]3(O)C(=O)C(C)=C[C@@H]23)[C@@H]2C(C)(C)[C@]12OC(C)=O [PMA, 13-phorbol-12-myristate acetate]
Tat-independent activation of integrated LTR-GFP construct (GFP expression) [3]: stimulated Tat-independent activation of the integrated LTR-GFP construct
cells latently infected as revealed by PMA stimulation [4]: > 90%
maximum achievable HIV-1 reactivation levels [5]: 90±3%

CC[C@H](C)[C@@H]1NC(=O)CNC(=O)[C@@H]2Cc3c([nH]c4cc(O)ccc34)[S+]([O-])C[C@@H](NC(=O)CNC1=O)C(=O)N[C@@H](CC(N)=O)C(=O)N1C[C@H](O)C[C@H]1C(=O)N[C@@H]([C@@H](C)[C@@H](O)CO)C(=O)N2 (stereo in doubt) [α-amanitin]
cytotoxicity at higher concentrations [1]: high levels of cytotoxicity
effect of higher concentrations on HIV-1 reactivation triggered by HRF or TNF-α [1]: inhibit HIV-1 reactivation
priming effect on HIV-1 reactivation by sub-optimal dose of HRF [1]: None of the inhibitors exerted a priming effect
priming effect on HIV-1 reactivation by sub-optimal dose of HRF ([1]; listed as α-aminitin): did not exhibit any priming effect

CO[C@H]1[C@H](O)[C@@H](O)[C@H](n2c3c(Cl)cccc3c3c4c(c5c6cccc(Cl)c6[nH]c5c32)C(=O)NC4=O)O[C@@H]1CO [rebeccamycin]
priming effect on HIV-1 reactivation by sub-optimal dose of HRF [1]: not reproduced
effect on active HIV-1 infection / transcription (GFP MCF) [6]: boosted active HIV-1 transcription

CC[C@@]1(O)C(=O)OCc2c1cc1n(c2=O)Cc2cc3ccccc3nc2-1 [camptothecin]
priming effect on HIV-1 reactivation by sub-optimal dose of HRF [1]: None of the inhibitors exerted a priming effect

COc1cccc2c1C(=O)c1c(O)c3c(c(O)c1C2=O)C[C@@](O)(C(C)=O)C[C@@H]3O[C@H]1C[C@H](N)[C@H](O)[C@H](C)O1 [daunorubicin]
effect on active HIV-1 infection / transcription (GFP MCF) [6]: boosted active HIV-1 transcription

CC(=O)NCCCCCCNC(C)=O [HMBA, Hexamethylene bisacetamide]
reactivation levels ([1]; HMBA alone, compared to TNF-α, PMA or HRF): < 40%
cells with reactivated HIV-1 ([1]; HMBA at 3 mM): 15%
cells with reactivated HIV-1 ([1]; HMBA at 9 mM): 35%
compound toxicity ([1]; HMBA at 9 mM): onset of compound toxicity
reactivation ([1]; combination of HMBA and TNF-α): 81%
reactivation ([1]; optimal dose of HMBA alone): 27%
priming of latent HIV-1 infection for reactivation by sub-optimal TNF-α ([1]; sub-toxic concentrations): relatively potent at priming latent HIV-1 infection for full reactivation
optimal concentration as HIV-1 priming agent, prior to onset of drug mediated toxicities ([1]; titration on CA5 T cells): 3 to 10 mM
